The source of these data is patent publication EP0337441A2, “Expression of a functional form of a herpes virus DNA polymerase in yeast” (E.R. Squibb & Sons, Inc., priority 1988, dated 1989).

Read-outs that look alike come from different tables or passages of the source.

The target in assay [1] is T1, HSV-1 DNA pol (Human herpesvirus 1, UniProt P04292). Description: HSV DNA pol assay (high salt, 100 mM ammonium sulfate), 3H-TTP incorporation into nicked calf thymus DNA by cell extracts. The note with it: HSV pol assay conditions. Further details: made in house; host or cells: Saccharomyces cerevisiae Y294 carrying pMH202 (strain Y-MH202), galactose-induced, crude cell lysate. The assay is classed as biochemical. How it is done: In order to determine whether HSV pol protein was expressed and whether HSV specific DNA polymerase activity could be detected in yeast cells containing pMH202, the following experiments were performed. This description represents only one example of how such a strain can be constructed. Other examples may include a different yeast host strain and/or a different transformation procedure. Yeast cells (Y 294) were transformed with pMH101 (control plasmid without the HSV pol gene) or pMH202 (expression plasmid with HSV pol gene) DNAs. Transformation of the yeast cells was accomplished using the method of J. D. Beggs (1978. Nature 275: 104 - 109). The transformants were selected for uracil prototrophy by growth on minimal media containing 182.2 g/L sorbitol; 20 g/L glucose; 6.7 g/L yeast nitrogen base (Difco) supplemented with 30µg/ml leucine, 20µg/ml histidine, 20µg/ml tryptophan and 2% glucose but lacking uracil. One colony of each type (designated Y-MH101 or Y-MH202, respectively) was selected at random for further analysis. 100 ml overnight cultures were grown from these two strains in minimal media (0.7% yeast nitrogen base [Difco]) containing the required amino acids as described above and 2% raffinose. […] The extent of lysis was monitored by microscopy. […]
T1 sequence (P04292 whole entry): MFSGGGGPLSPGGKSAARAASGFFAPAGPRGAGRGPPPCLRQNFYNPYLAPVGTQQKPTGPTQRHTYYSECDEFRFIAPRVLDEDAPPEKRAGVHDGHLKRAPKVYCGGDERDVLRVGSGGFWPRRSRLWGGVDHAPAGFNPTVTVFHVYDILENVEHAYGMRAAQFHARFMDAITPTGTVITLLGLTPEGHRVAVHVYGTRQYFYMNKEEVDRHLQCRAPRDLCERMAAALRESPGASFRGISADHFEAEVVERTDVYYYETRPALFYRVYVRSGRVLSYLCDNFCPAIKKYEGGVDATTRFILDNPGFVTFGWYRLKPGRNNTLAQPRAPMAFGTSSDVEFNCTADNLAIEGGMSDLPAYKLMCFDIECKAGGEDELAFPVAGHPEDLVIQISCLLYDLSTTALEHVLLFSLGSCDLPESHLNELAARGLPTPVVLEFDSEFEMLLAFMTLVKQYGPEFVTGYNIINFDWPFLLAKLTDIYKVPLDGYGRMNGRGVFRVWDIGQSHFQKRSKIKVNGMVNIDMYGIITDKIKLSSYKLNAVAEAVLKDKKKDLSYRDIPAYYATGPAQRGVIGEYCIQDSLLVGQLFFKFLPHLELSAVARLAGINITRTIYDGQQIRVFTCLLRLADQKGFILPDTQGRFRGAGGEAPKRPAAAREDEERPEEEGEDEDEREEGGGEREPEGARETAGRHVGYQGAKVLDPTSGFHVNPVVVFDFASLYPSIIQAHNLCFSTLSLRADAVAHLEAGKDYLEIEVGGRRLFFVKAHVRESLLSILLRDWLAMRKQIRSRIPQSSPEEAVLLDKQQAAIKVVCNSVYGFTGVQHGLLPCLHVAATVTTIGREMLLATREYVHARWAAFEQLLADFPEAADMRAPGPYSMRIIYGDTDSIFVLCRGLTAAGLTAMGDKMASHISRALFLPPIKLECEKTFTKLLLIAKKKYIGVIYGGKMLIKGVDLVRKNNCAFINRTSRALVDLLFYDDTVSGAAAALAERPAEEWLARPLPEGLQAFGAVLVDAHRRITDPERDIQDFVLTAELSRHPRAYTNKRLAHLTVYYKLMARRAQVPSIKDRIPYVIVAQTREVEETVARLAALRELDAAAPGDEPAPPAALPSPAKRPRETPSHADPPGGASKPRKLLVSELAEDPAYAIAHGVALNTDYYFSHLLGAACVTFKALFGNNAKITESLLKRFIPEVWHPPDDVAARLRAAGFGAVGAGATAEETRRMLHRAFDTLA
(§1) The lysates were also analyzed for DNA polymerase enzyme activity. […]

The target of the next assay is yeast alpha DNA pol (Saccharomyces cerevisiae, UniProt P13382). Description: Yeast DNA polymerase (alpha pol) assay (low salt), 3H-TTP incorporation by yeast cell extracts. The assay is classed as biochemical, Saccharomyces cerevesiae. Particulars: for low salt DNA pol activity, sensitivity to drug (result in words): all of the extracts tested (also HSV-infected HeLa extract), at the concentration tested; for inhibition at 5.3 µM: aphidicolin 5.3 µM. How it is done: (§2) In order to determine whether HSV pol protein was expressed and whether HSV specific DNA polymerase activity could be detected in yeast cells containing pMH202, the following experiments were performed. This description represents only one example of how such a strain can be constructed. Other examples may include a different yeast host strain and/or a different transformation procedure. Yeast cells (Y 294) were transformed with pMH101 (control plasmid without the HSV pol gene) or pMH202 (expression plasmid with HSV pol gene) DNAs. Transformation of the yeast cells was accomplished using the method of J. D. Beggs (1978. Nature 275: 104 - 109). The transformants were selected for uracil prototrophy by growth on minimal media containing 182.2 g/L sorbitol; 20 g/L glucose; 6.7 g/L yeast nitrogen base (Difco) supplemented with 30µg/ml leucine, 20µg/ml histidine, 20µg/ml tryptophan and 2% glucose but lacking uracil. One colony of each type (designated Y-MH101 or Y-MH202, respectively) was selected at random for further analysis. 100 ml overnight cultures were grown from these two strains in minimal media (0.7% yeast nitrogen base [Difco]) containing the required amino acids as described above and 2% raffinose. The following day, cultures were divided in half, cells were pelleted, resuspended in 100 ml of fresh media containing either 2% raffinose or 2% galactose and again grown overnight. The following day, the four cultures were pelleted at 4°C. Cell lysates were prepared as described by Johnson et al. (1985 . Cell 43:369 - 377). This represents only one example of how such a lysate may be prepared. Cell pellets were resuspended in 1 ml 50 mM Tris-HCl, pH 8.0; 50mM NaCl, 1% dimethylsulfoxide; 10% glycerol; 5mM beta-mercaptoethanol; 10mM EDTA; 2mM benzamidine; and 1mM phenylmethylsulfonylfluoride (PMSF). Lysis was achieved by vortexing the cells 15 - 20 times for 1 minute in the presence of an equal volume of acid-washed glass beads. The extent of lysis was monitored by microscopy. The lysed extracts were transferred to 1.5 ml microfuge tubes and centrifuged for 10 minutes at 12,000 x g. Extracts were stored at -80°C in 15% glycerol until use. The final protein concentration of each of the extracts was between 5 - 6 mg/ml.
Chain of yeast alpha DNA pol (P13382 2-1468): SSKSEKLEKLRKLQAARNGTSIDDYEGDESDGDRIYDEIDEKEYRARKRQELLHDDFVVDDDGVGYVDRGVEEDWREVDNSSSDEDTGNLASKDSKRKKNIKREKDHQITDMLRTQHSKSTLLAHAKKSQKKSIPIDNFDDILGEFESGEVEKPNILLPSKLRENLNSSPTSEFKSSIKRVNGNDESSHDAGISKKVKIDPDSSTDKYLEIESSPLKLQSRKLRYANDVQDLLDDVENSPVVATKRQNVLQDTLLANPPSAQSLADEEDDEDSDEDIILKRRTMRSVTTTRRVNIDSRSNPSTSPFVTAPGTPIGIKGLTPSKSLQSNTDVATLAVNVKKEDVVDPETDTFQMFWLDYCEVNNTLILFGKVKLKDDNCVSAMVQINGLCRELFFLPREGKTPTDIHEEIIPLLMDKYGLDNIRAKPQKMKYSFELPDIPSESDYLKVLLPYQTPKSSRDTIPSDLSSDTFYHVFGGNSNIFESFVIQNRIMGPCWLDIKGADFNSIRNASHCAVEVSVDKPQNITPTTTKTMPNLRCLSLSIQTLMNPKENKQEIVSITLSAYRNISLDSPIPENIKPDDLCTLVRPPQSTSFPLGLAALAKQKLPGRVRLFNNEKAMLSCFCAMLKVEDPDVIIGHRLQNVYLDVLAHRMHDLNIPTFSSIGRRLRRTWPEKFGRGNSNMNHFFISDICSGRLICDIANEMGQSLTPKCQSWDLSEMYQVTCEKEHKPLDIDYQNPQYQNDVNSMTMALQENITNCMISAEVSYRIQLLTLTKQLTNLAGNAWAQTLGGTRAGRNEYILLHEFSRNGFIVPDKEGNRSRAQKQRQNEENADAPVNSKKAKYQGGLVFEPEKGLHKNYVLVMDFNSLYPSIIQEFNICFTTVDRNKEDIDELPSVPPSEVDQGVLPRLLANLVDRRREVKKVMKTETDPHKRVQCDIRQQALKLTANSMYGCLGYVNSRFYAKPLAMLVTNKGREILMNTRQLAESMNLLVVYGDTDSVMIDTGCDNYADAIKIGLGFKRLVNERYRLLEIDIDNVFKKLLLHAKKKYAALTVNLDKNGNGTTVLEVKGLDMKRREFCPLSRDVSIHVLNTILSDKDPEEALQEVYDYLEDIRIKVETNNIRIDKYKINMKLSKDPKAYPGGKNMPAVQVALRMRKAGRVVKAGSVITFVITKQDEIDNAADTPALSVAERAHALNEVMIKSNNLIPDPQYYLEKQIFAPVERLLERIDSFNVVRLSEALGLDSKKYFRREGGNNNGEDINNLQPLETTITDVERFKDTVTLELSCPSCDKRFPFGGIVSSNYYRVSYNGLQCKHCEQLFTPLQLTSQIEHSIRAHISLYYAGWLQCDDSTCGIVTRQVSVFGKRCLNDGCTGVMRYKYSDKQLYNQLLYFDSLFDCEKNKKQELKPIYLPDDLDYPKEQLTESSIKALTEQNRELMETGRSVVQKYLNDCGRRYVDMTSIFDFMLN
The lysates were also analyzed for DNA polymerase enzyme activity. Each of the four yeast cell extracts was assayed for DNA pol activity under two sets of conditions. The yeast DNA pol assay conditions were designed to detect the alpha polymerase which should be present in all lysates. The HSV DNA pol assay conditions were chosen to detect HSV specific DNA pol activity which is enhanced by high salt (100mM ammonium sulfate). In contrast, the yeast alpha DNA pol is inhibited under these salt conditions. The assay for yeast DNA polymerase was performed essentially as described in Celniker and Campbell (1982. Cell 31:201 - 213), but without addition of ribonucleotide triphosphates. Reaction mixtures contained 5µl of enzyme extract (25 - 30 µg of protein) in 10mM Tris-HCl, pH 7.5; 10 mM MgCl₂; 10 mM (NH₄)₂SO₄; 0.1 mM DTT; 100 µM each of dATP, dCTP, dGTP; 100 µM ³H-TTP (10 cpm/pmol); 40 µg/ml nicked calf thymus DNA; and 2 mM spermidine in a final volume of 50 µl. The assay for the HSV-1 DNA pol was performed as follows. […] The filters were washed thoroughly, twice using 1N HCl and once using 95% ethanol; air dried and quantitated by scintillation counting using a LKB 1214 Rackbeta counter at 63% efficiency. […]

Assay [2] has as its target T1, HSV-1 DNA pol. Description: HSV DNA pol assay (high salt, 100 mM ammonium sulfate), 3H-TTP incorporation into nicked calf thymus DNA by cell extracts. It counts as biochemical. The note with it: for high salt activity in the Y-MH202 yeast cell extracts (result in words): Y-MH202 extract, 23 µM ACVTP, 5.3 µM aphidicolin. As to the method: as §2
Infected cell extracts were prepared essentially as described by Karkas et al. (1986. J. Med. Chem. 29:842 - 848). HeLa S3 cells were infected with HSV-1 KOS at a multiplicity of infection of 10 plaque forming units per cell and harvested at 16 hours post infection. […]
as §1

Regarding `C[C@@]1(CO)[C@H](O)CC[C@@]2(C)[C@H]1CC[C@H]1C[C@@H]3C[C@@]12CC[C@]3(O)CO` [Aphidicolin, aphidicolin], the inhibition at 5.3 µM came to 90% at HSV-1 DNA pol [1] (read-out: % Inhibition by Drug Aphidicolin, HSV-infected HeLa cells extract, aphidicolin 5.3 µM); 88% at yeast alpha DNA pol (read-out: % Inhibition by Drug Aphidicolin, Yeast Control (Y-MH101, galactose) extract, alpha pol assay conditions); 80% at yeast alpha DNA pol (read-out: % Inhibition by Drug Aphidicolin, Yeast Expressor (Y-MH202, galactose) extract, alpha pol assay conditions); 94% on HSV-1 DNA pol [2] (read-out: % Inhibition by Drug Aphidicolin, Yeast Expressor (Y-MH202, galactose) extract, HSV pol assay conditions, aphidicolin 5.3 µM). Also, on yeast alpha DNA pol, the “low salt DNA pol activity, sensitivity to drug (result in words)” value was “sensitive”. In addition, the “high salt activity in the Y-MH202 yeast cell extracts (result in words)” value at HSV-1 DNA pol [2] is listed as “inhibited”.

`Nc1nc2c(ncn2COCCOP(=O)(O)OP(=O)(O)OP(=O)(O)O)c(=O)[nH]1` [ACVTP, acyclovir triphosphate]: the inhibition at 23 µM is 89% on HSV-1 DNA pol [1] (HSV-infected HeLa cells extract, ACVTP 23 µM, read-out: % Inhibition by Drug ACVTP); 0% at yeast alpha DNA pol (Yeast Control (Y-MH101, galactose) extract, alpha pol assay conditions, ACVTP 23 µM, 0% means relative activity ≥1.0, read-out: % Inhibition by Drug ACVTP); 93% on HSV-1 DNA pol [2] (Yeast Expressor (Y-MH202, galactose) extract, HSV pol assay conditions, ACVTP 23 µM, read-out: % Inhibition by Drug ACVTP). Besides, the “low salt DNA pol activity, sensitivity to drug (result in words)” value at yeast alpha DNA pol is “not sensitive”. The “high salt activity in the Y-MH202 yeast cell extracts (result in words)” value at HSV-1 DNA pol [2] is “inhibited”.

For orientation: inhibition means the percentage by which the read-out fell short of the control.
